System: secretion of endogenous insulin-degrading enzyme (IDE)
Assay: Secretion assay: effect of lovastatin on IDE secretion in COS-7 cells transfected with GFAP-ΔEx4 (Western immunoblot, ratio of IDE in medium to IDE in lysates)
Assay type: cell-based, monkey
Conditions: Primates, 5 µM lovastatin for 15 hours, 36 hours post transfection, versus DMSO vehicle, read-out: increase of IDE secretion (ratio of IDE in the medium to IDE in the lysates) compared to GFAP-ΔEx4
Method: COS-7 cells, a fibroblast-like cell line from monkey kidney tissue (ATCC, USA), were cultured in Dulbecco's Modified Eagle Medium (DMEM) (Life Technologies) containing 10% Fetal calf serum (FCS) (Life Technologies) and 1% Penicillin/Streptomycin (PS) (Life Technologies) (DMEM +/+) and splitted into new dishes (Coming). For all experiments cells were counted by using a Neubauer counting chamber. To estimate cell number (cells/ml), the average number from four big squares of the Neubauer chamber was multiplied by 10'000 and the cell suspension was diluted to the desired cell concentration. […]
The effect of statins on the secretion of IDE disturbed by Alexander disease-causing mutation in the 2A rod region of GFAP was determined by cell transfection and pharmacological treatment in COS-7 cells.
Cells were seeded in 6 well plates day before the transfection to a 50% confluence in DMEM medium supplemented with 10% FCS/1% PS. […] Proteins were separated by sodium dodecyl sulfate-polyacrylamide gel electrophoresis (SDS-PAGE), transferred to nitrocellulose membranes (Whatman), and detected by Western immunoblotting using enhanced chemiluminescence detection (ChemiDoc XRS, Bio-Rad). Signals were quantified with Quantity One Software (Bio-Rad).

## CC[C@H](C)C(=O)O[C@H]1C[C@@H](C)C=C2C=C[C@H](C)[C@H](CC[C@@H]3C[C@@H](O)CC(=O)O3)[C@H]21 [lovastatin, [(1S,3R,7S,8S,8aR)-8-[2-[(2R,4R)-4-hydroxy-6-oxooxan-2-yl]ethyl]-3,7-dimethyl-1,2,3,7,8,8a-hexahydronaphthalen-1-yl] (2S)-2-methylbutanoate]
  activation at 5 µM: ~100%
